The text below walks through data of patent US9181182B2, “S1P receptors modulators” (Akaal Pharma PTY LTD, priority 2008, dated 2015).

A value given as a limit tells only on which side of the number the result lay.

One series deals with S1P3 human receptor (Homo sapiens (Human), UniProt Q99500). Briefly: S1P3 calcium mobilization in CHO K1 cells. The format is cell-based. The conditions noted are these: NA = Not Active. As to the method: (§1) Independently, selected compounds were evaluated for S1P1 and S1P3 agonistic activity. The S1P1 assay system was GTPgama-S35 binding in membranes from CHO K1 cells, expressing S1P1 human receptor. The S1P3 assay system was calcium mobilization in CHO K1 cells expressing S1P3 human receptor. […] Compounds were tested initially at a concentration of 10 μM.
S1P3 human receptor, sequence (Q99500 whole entry): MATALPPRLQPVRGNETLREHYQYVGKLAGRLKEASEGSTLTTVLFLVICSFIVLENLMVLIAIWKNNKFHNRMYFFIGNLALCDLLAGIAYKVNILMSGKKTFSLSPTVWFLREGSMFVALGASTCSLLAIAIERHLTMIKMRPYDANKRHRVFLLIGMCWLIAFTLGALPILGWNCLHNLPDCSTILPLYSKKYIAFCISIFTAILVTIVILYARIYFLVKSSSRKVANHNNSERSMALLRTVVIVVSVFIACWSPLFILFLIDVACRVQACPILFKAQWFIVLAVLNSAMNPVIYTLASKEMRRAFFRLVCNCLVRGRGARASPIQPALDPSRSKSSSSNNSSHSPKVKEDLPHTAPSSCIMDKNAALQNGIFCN

In series [1] the test system is Human promyelocytic leukemia (HL-60) cells. Briefly: Cell viability (growth inhibition) assay, MTS. The format is cell-based. As to conditions: 50% reduction in cell viability of HL-60 cells, 48 hr incubation. As to the method:
In order to measure the apoptotic effect of compounds on the metabolic activity of viable cells, the following assay was performed on Human promyelocytic leukemia cells. The assay utilises the tetrazolium compound (3-(4,5-dimethylthiazol-2-yl)-5-(3-carboxymethoxyphenyl)-2-(4-sulfophenyl)-2H-tetrazolium, inner salt; (MTS) and an electron coupling reagent (phenazine methosulfate; (PMS). MTS is bioreduced by cells into a formazan product the optical absorbance of which is measured directly from 96 well assay plates. The conversion of MTS into aqueous, soluble formazan is accomplished by dehydrogenase enzymes found in metabolically active cells. The quantity of formazan product as measured by the amount of 490 nm absorbance is directly proportional to the number of living cells in culture.
The assay was based on the National Cancer Institute (NCI) protocol, briefly, cells were grown in RPMI 1640 media supplemented with 10% FCS (foetal calf serum) and kept at 37° C. in a humidified environment with 5% CO2.
For the growth inhibition assay, Human promyelocytic leukemia (HL-60) cells were seeded at a density of 10,000 cells per well in 96 well plates in a volume of 100 μl and allowed to grow for 24 h. Compounds were serially diluted in DMSO at concentrations 100 fold higher than used in the assay (100×). Compounds were freshly prepared for each experiment. The 100× stocks were then diluted to 2× stocks into media and immediately, 100 μl of this 2× stock was added to the cells to create the desired final concentration of drug with a DMSO concentration of 1%. One row of each 96 well plate was treated with DMSO alone as a control. Cells were then incubated for a further 48 hr. Metabolic activity was determined using MTS (Promega) (90% 1.6 mg/ml MTS, 10% 1.6 mg/ml PMS (phenazine methosulfate) made fresh in PBS). 50 μl of this mix was added to all wells of the plates and allowed to incubate for 1.5-2 hr. Plates were shaken gently for about 15 min and absorbance was read on a plate reader at 490 nm. Averages were taken of the readings at each point with standard deviation and plotted using MicroCal Origin.

For the next series, the target named is S1P1 human receptor (Homo sapiens (Human), UniProt P21453). The experiment in a line: S1P1 [35S]-GTPgamaS binding assay (agonist activity). The format is biochemical. The conditions noted are these: for EC50: GTPgamaS binding, agonist; for Efficacy (% of maximum): S1P1, relative to reference agonist S1P; for EC50S1P1/EC50S1P: potency at S1P1 relative to S1P. As to the method:
Selected Compounds of the Examples were evaluated at Millipore Corporation, USA, using S1P1 receptor; [^35S]-GTPgamaS binding assay. A [^35S]-GTPgamaS binding assay at Millipore was conducted by GPCR Profiler™ Custom Service Laboratory, Temecula, Calif., Millipore, Inc. to monitor dose-dependent agonist selectivity for selected Examples against the S1P1 receptors. The assay was completed with sample compounds subjected to an eight-point, four-fold dose response curve with starting concentration of 10 μM. Selectivity was determined upon initial addition of compounds followed by a 30 minute incubation at 30° C. Following compound incubation, bounded [^35S]-GTPgamaS was determined by filtration and scintillation counting.
as §1

The next series deals with female BALB/c mice. Briefly: Lymphopenia assay. The format is in vivo. On the procedure:
The study was performed to determine the ability of the compounds of the invention to induce lymphopenia in female BALB/c mice. On day 0, 27 female BALB/c mice were randomised based on body weight into nine groups of three mice each. Animals received a single i.p. administration of Test compounds and blood was collected by cardiac puncture either 6 or 24 h after administration. […] Changes to other haematological parameters were not observed.

The mark [2] stands for this setting: 3 mg/kg and 30 mg/kg single i.p., 6 and 24 h, compared to untreated animals.

S1P1 human receptor, sequence (P21453 whole entry): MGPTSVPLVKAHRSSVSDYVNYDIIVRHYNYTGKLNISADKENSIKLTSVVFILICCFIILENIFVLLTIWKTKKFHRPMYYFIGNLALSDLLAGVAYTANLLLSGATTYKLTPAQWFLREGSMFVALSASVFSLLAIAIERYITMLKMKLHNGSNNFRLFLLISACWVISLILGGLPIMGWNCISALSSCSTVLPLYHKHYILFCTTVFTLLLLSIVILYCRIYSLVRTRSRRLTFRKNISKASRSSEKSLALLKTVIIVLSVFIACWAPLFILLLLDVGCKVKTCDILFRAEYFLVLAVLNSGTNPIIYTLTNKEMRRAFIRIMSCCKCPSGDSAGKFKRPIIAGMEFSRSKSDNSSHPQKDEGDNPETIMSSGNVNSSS

As for `CCOc1ccc(-c2nc(-c3cccc4c3CCN4CC(N)(CO)CO)no2)cc1OCC` [Example 34, 2-Amino-2-((4-(5-(3,4-diethoxyphenyl)-1,2,4-oxadiazol-3-yl)indolin-1-yl)methyl)propane-1,3-diol], the EC50 on S1P3 human receptor was determined as 1290 nM. Also, in series [1] (Homo sapiens), the IC50 turned out to be 1820 ± 500 nM. Besides, on S1P1 human receptor, the EC50 amounted to 6.8 nM, the “Efficacy (% of maximum)” value was 92% and the EC50S1P1/EC50S1P was determined as 0.4. In addition, in the series with female BALB/c mice (setting [2]), the lymphocyte counts result is listed as “decrease” and the “total white blood cell counts” value was “decrease”. Moreover, the “Changes to other haematological parameters” value in the series with female BALB/c mice (single i.p., 6 or 24 h) is listed as “not observed”.

Consider `CCOc1ccc(-c2nc(-c3ccc4c(c3)CCN4CC(N)(CO)CO)no2)cc1OCC` [Example 40, 2-Amino-2-((5-(5-(3,4-diethoxyphenyl)-1,2,4-oxadiazol-3-yl)indolin-1-yl)methyl)propane-1,3-diol], for which the EC50 on S1P3 human receptor is greater than 15600 nM. The molecule further displayed an IC50 in series [1] (Homo sapiens) of 3100 nM. In addition, at S1P1 human receptor, it took 344 nM to reach a half-maximal effect (EC50), the “Efficacy (% of maximum)” value turned out to be 117% and the EC50S1P1/EC50S1P worked out at 36.41.

Regarding `CCCOc1ccc(-c2nc(-c3cccc4c3CCN4CC(N)(CO)CO)no2)cc1OCCC` [Example 43, 2-Amino-2-((4-(5-(3,4-di-propoxyphenyl)-1,2,4-oxadiazol-3-yl)indolin-1-yl)methyl)propane-1,3-diol], the EC50 on S1P3 human receptor stood at 3100 nM. Also, on S1P1 human receptor, the response was half-maximal at 18 nM (EC50), the “Efficacy (% of maximum)” value turned out to be 89% and the EC50S1P1/EC50S1P is 2.22.

`CCCc1ccc(-c2nc(-c3cccc4c3CCN4CC(N)(CO)CO)no2)cc1CCC` [Example 47, 2-Amino-2-((4-(5-(3,4-dipropylphenyl)-1,2,4-oxadiazol-3-yl)indolin-1-yl)methyl)propane-1,3-diol]: on S1P3 human receptor, the EC50 came out at 965 nM. Besides, at S1P1 human receptor, the response was half-maximal at 2.4 nM (EC50), the “Efficacy (% of maximum)” value was 94% and the EC50S1P1/EC50S1P is reported as 0.33.

In series [1] (Homo sapiens), `NC(CO)(CO)CN1CCc2c(-c3noc(C45CC6CC(CC(C6)C4)C5)n3)cccc21` [Example 57, 2-Amino-2-((4-(5-(1-adamantyl)-1,2,4-oxadiazol-3-yl)indolin-1-yl)methyl) propane-1,3-diol] returned a half-maximal inhibitory concentration (IC50) of 1000 nM. Moreover, at S1P1 human receptor, the “Efficacy (% of maximum)” value came to 82% and the EC50S1P1/EC50S1P is 268.44.

In series [1] (Homo sapiens), `CCOc1ccc(-c2nc(-c3ccc(C4=CCN(CC(N)(CO)CO)CC4)cc3)no2)cc1OCC` [Example 58, 2-Amino-2-((4-(4-(5-(3,4-diethoxyphenyl)-1,2,4-oxadiazol-3-yl)phenyl)-5,6-dihydropyridin-1(2H)-yl)methyl)propane-1,3-diol] yielded an IC50 of 1700 nM. Besides, on S1P1 human receptor, the EC50 was greater than 2060 nM, the “Efficacy (% of maximum)” value turned out to be 60% and the EC50S1P1/EC50S1P was found to be 150.

With `CCCCCCCCOc1ccc(CCC(N)(CO)CO)cc1C12CC3CC(CC(C3)C1)C2.Cl` [Example 63, 2-Amino-2-(3-(1-admantyl)-4-(octyloxy)phenethyl)propane-1,3-diol hydrochloride salt], in series [1], 2400 ± 620 nM corresponded to half-maximal inhibition (IC50). At S1P1 human receptor, this molecule displayed a concentration giving a half-maximal response (EC50) greater than 40000 nM and an EC50S1P1/EC50S1P of 3188.66.

With `CCOc1ccc(-c2nc(-c3ccc4c(c3)CN(CC(N)(CO)CO)C4)no2)cc1OCC` [Example 65, 2-Amino-2-((5-(5-(3,4-diethoxyphenyl)-1,2,4-oxadiazol-3-yl)isoindolin-2-yl)methyl)propane-1,3-diol], the EC50 at S1P3 human receptor worked out at 390 nM. Further, on S1P1 human receptor, it took 7.4 nM to reach a half-maximal effect (EC50), the “Efficacy (% of maximum)” value is 97% and the EC50S1P1/EC50S1P was determined as 0.16.

In series [1] (Homo sapiens), `CCCCCCCCc1ccc(CCC(N)(CO)CO)cc1` [FTY 720, 2-amino-2-(2-[4-octylphenyl]ethyl)-1,3-propanediol, reference compound] yielded an IC50 of 3340 ± 190 nM. The “Efficacy (% of maximum)” value on S1P1 human receptor is given as 99%.
